# Experimental data as given in US9120812B2, “Pyrimidooxazocine derivatives as mTOR-inhibitors” (SANOFI, priority 2012, dated 2015).
# How the values were obtained:
# [1] = molecular target: mTOR (human recombinant aa mTOR 1360-2549) (Homo sapiens (Human), UniProt P42345); assay: mTOR enzymatic test by TR-FRET (phosphorylation of GFP-4EBP1); type: biochemical
# Experimental: Model 1: mTOR Enzymatic Test by TR-FRET (Time-resolved Fluorescence Resonance Energy Transfer).
# The test detects the phosphorylation of the substrate GFP-4EBP1 using a terbium-labelled antibody that is specific for the phospho-Thr46 epitope. Binding of the Tb-antibody to the phosphorylated GFP peptide allows the transfer of energy from Tb, excited at 340 nm, to GFP with an increase in the fluorescence emission of the GFP at 520 nm. […] The mixture is incubated for 30 minutes at room temperature. 10 μl of solution are taken up and the reaction is quenched by adding 10 μl of Tb-antibody solution (Invitrogen PV4757)/EDTA (2 nM Tb-Ac and 10 mM EDTA final). After 60 minutes at room temperature, the fluorescence at 490 nm, from the Tb emission, and at 520 nm, from the GFP emission, is measured in a BMG PHERAstar reader equipped with a Lanthascreen™ filter (excitation at 340 nm, emission at 490 and 520 nm). The results are given in the form of the 520/490 ratio.
# U87MG tumour cells = assay: Test of in vitro proliferation of U87MG tumour cells; type: cell-based; conditions: Homo sapiens, U-87 MG, 72 h, U87MG cells, 72 hours; read-out: U87 Cell Proliferation IC50
# Experimental: Model 4: Test of in vitro Proliferation of U87MG Tumour Cells.
# The cell growth is determined with the reagent CellTiter 96 AQueous One Solution Cell Proliferation Assay from Promega (Cat. No. G3581).
# Akt-pS473 in U87MG cells = conditions: Homo sapiens, U-87 MG; for IC50: read-out: U87 Akt-pS473 % Inhibition or IC50, nM (IC50), U87MG cells; for inhibition at 1 µM: read-out: U87 Akt-pS473 % Inhibition
# Chain of mTOR (human recombinant aa mTOR 1360-2549) (P42345 1360-2549): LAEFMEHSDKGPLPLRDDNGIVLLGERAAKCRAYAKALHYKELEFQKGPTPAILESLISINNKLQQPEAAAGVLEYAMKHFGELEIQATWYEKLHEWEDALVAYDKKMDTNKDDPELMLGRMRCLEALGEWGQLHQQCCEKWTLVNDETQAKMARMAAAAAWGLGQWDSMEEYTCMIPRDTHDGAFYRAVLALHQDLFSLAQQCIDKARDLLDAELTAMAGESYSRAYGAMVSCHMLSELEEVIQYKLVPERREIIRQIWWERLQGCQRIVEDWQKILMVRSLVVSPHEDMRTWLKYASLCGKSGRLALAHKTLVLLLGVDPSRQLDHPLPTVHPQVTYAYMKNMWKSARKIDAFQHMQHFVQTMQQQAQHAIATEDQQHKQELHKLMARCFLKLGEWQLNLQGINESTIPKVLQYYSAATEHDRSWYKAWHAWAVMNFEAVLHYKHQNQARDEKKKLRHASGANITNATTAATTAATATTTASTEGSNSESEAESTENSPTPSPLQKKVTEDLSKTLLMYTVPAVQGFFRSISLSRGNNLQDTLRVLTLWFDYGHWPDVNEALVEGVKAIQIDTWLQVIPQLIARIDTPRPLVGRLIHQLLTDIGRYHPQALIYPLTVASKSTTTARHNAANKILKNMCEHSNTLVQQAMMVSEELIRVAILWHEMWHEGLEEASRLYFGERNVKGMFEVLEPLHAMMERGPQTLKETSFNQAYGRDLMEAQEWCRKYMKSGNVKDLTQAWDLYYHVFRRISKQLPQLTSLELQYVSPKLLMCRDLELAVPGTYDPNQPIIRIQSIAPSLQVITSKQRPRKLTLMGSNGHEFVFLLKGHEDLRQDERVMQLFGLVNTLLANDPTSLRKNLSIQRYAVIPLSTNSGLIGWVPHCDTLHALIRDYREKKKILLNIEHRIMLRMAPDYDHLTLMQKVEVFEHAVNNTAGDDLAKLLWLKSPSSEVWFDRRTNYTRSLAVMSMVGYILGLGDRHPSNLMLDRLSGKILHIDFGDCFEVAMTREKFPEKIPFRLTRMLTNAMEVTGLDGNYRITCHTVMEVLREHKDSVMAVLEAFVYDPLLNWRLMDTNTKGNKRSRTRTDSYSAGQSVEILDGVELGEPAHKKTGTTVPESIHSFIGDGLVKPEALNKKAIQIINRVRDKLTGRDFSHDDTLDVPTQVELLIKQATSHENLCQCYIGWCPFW
SMILES,IC50 [1] [nM],IC50 (U87MG tumour cells) [nM],IC50 (Akt-pS473 in U87MG cells) [nM],inhibition at 1 µM (Akt-pS473 in U87MG cells) [%]
"CCN1CC(C)(C)Oc2nc(N3CC4CCC(C3)O4)nc(-c3ccc(NC(=O)NCC(C)(C)O)c(F)c3)c2C1=O [Example 24, 1-{4-[6-ethyl-8,8-dimethyl-2-(8-oxa-3-azabicyclo[3.2.1]oct-3-yl)-5-oxo-5,6,7,8-tetrahydro-9-oxa-1,3,6-triazabenzocyclohepten-4-yl]-2-fluorophenyl}-3-(2-hydroxy-2-methylpropyl)urea]",1070,> 10000,> 1000,
"CCN1CC(C)(C)Oc2nc(N3CC4CCC(C3)O4)nc(-c3ccc(NC(=O)N[C@H](C)CO)c(F)c3)c2C1=O [Example 27, 1-{4-[6-ethyl-8,8-dimethyl-2-(8-oxa-3-azabicyclo[3.2.1]oct-3-yl)-5-oxo-5,6,7,8-tetrahydro-9-oxa-1,3,6-triazabenzocyclohepten-4-yl]-2-fluorophenyl}-3-((R)-2-hydroxy-1-methylethyl)urea]",394,9150,> 1000,
"Cc1cc(NC(=O)Nc2ccc(-c3nc(N4CC5CCC(C4)O5)nc4c3C(=O)N(C)CC(C)(C)O4)cc2F)ccn1 [Example 60, 1-{2-Fluoro-4-[6,8,8-trimethyl-2-(8-oxa-3-azabicyclo[3.2.1]oct-3-yl)-5-oxo-5,6,7,8-tetrahydro-9-oxa-1,3,6-triazabenzocyclohepten-4-yl]phenyl}-3-(2-methylpyridin-4-yl)urea]",58,46,17,
"CCN1CC(C)(C)Oc2nc(N3CC4CCC(C3)O4)nc(-c3ccc(NC(=O)O[C@@H](C)CO)c(F)c3)c2C1=O [Example 61, {4-[6-Ethyl-8,8-dimethyl-2-(8-oxa-3-azabicyclo[3.2.1]oct-3-yl)-5-oxo-5,6,7,8-tetrahydro-9-oxa-1,3,6-triazabenzocyclohepten-4-yl]-2-fluorophenyl}carbamic acid (S)-2-hydroxy-1-methylethyl ester]",993,4670,> 1000,
"CCN1CC(C)(C)Oc2nc(N3CC4CCC(C3)O4)nc(-c3ccc(NC(=O)Nc4cc(C)nc(C)n4)c(F)c3)c2C1=O [Example 90, 1-(2,6-Dimethylpyrimidin-4-yl)-3-{4-[6-ethyl-8,8-dimethyl-2-(8-oxa-3-azabicyclo[3.2.1]oct-3-yl)-5-oxo-5,6,7,8-tetrahydro-9-oxa-1,3,6-triazabenzocyclohepten-4-yl]-2-fluorophenyl}urea]",450,2900,,64
"COCCN1CC(C)(C)Oc2nc(N3CC4CCC(C3)O4)nc(-c3ccc(NC(=O)Nc4cccc(OC(F)F)c4)c(F)c3)c2C1=O [Example 220, 1-(3-Difluoromethoxyphenyl)-3-{2-fluoro-4-[6-(2-methoxyethyl)-8,8-dimethyl-2-(8-oxa-3-azabicyclo[3.2.1]oct-3-yl)-5-oxo-5,6,7,8-tetrahydro-9-oxa-1,3,6-triazabenzocyclohepten-4-yl]phenyl}urea]",348,285,30,
"CCN1CC(C)(C)Oc2nc(N3CC4CCC(C3)O4)nc(-c3ccc(NC(=O)OC[C@@H](C)O)c(F)c3)c2C1=O [Example 239, {4-[6-Ethyl-8,8-dimethyl-2-(8-oxa-3-azabicyclo[3.2.1]oct-3-yl)-5-oxo-5,6,7,8-tetrahydro-9-oxa-1,3,6-triazabenzocyclohepten-4-yl]-2-fluorophenyl}carbamic acid (R)-2-hydroxypropyl ester]",1070,> 10000,,38
"CCN1CC(C)(C)Oc2nc(N3CC4CCC(C3)O4)nc(-c3ccc(NC(=O)Nc4ccnc(N5CCC(F)(F)CC5)c4)c(F)c3)c2C1=O [Example 261, 1-(4,4-Difluoro-3,4,5,6-tetrahydro-2H-[1,2′]bipyridinyl-4′-yl)-3-{4-[6-ethyl-8,8-dimethyl-2-(8-oxa-3-azabicyclo[3.2.1]oct-3-yl)-5-oxo-5,6,7,8-tetrahydro-9-oxa-1,3,6-triazabenzocyclohepten-4-yl]-2-fluorophenyl}urea]",,160,20,
